# Source: US4816490A, “Novel therapeutic use of a derivative of indane dione and the pharmaceutical compositions intended for this use” (priority 1987, dated 1989)
# Key:
# [1] = tested on: hyperlipidaemia / atheroma in Wistar rats on atheromatogenous regimen; assay: Biochemical testings in rats on atheromatogenous (cholesterol-rich) diet, including atheroma risk ratios; format: in vivo, rat; conditions: 100 mg/kg; for Cholesterol in LDL, variation in comparison to controls-Diet: LDL (estimate)
# Excerpt: (§1) The method utilized for the test was that, slightly altered of Aubert D. Feraud J. C., Lacaze B., Pepino., Ponak E. et Podesta M. as described in Atherosclerosis, Vol. 20 (1974), p. 263-280 (Experimental Atherogenesis in the Wistar Rat).
# (§2) Female rats of Wistar strain, free of specific pathogenic germs (EOPS) stemming from the breeding EVIC-CEBA
# Mean body weight: 160-180 g at the start of the test
# (§3) Diet: standard tablets UAE AO 3 enriched in cholesterol (0.5%) and in cholic acid (0.5).
# 15 animals per each batch and by cage in MACROLON (Safi) of 59 cm×38 cm, 5 cm filled with a litter of shavings of wood.
# (§4) Diet of the animals: the animals were given the atheromatogenous regimen then while maintaining the same regimen, they were given for 4 days 250,000 IU/kg of vitamin D2 dissolved in olive oil (Sterogyl 15H). The compounds to be tested were given thereafter for 4 weeks immediately after the termination of the atheromatogenous regimen.
# At the end of these studies the following tests were performed on all surviving animals.
# Esterified blood cholesterol
# Cholesterol in LDL (estimate)
# The total score for each product was obtained by adding each individual scores and allowed the following classification
# The protection against the atheromatogenous risk was evaluated using the following ratios: […]
# [2] = tested on: atheromatous deposits of the aorta, Wistar rats; assay: Macroscopic examination of aorta atheroma in rats on atheromatogenous diet; format: in vivo, rat; conditions: 100 mg/kg
# Excerpt: as §1, §3
# After the studies, all the animals were sacrificed by subtotal puncture of the blood in the abdominal aorta after anesthesia by intravenous sodium Pentobarbital. The hearts, livers, aortas on which the score of atheroma was determined were taken. For this purpose, the aortas were longitudinally cut, then spread to allow a whole insight of the endothelial coating from the aortic valves until the branching of the coeliac stem (lower portion of the thoracic aorta).
# Aorta was from an anatomic point of view divided into two parts:
# Zone 1: aortic valves-first intercostal arters
# Zone 2: first intercostal arters and branching of the coeliac stem
# The intensity of the atheromatous deposits was determined according to the following scores:
# Score 1: Discrete (<1 mm) and few deposit
# Score 2: Numerous and discrete deposits
# Score 3: Numerous and marked deposits (<1 mm)
# Score 4: Very marked deposits or very numerous deposits but letting some uninfiltrated areas
# Score 5: Deposits on the whole epithelium
# Two parameters were considered:
# the intensity of the observed damages determined according to the previously-given scores.
# [3] = tested on: atheromatous damages of the aorta, Wistar rats; assay: Histopathological examination of atheroma in rats on atheromatogenous diet; format: in vivo, rat; conditions: 100 mg/kg
# Excerpt: as §1, §3
# The aorta, livers, hearts of the rats after sacrifice were […] with an aqueous solution of Bouin's Reagent and embedded in paraffin after washing with alcohols at increasing concentration and with toluene. The hearts were kept in blocks of paraffin for a further examination when necessary. The livers were stained using the technique of Hematein-eosin and the aorta were stained using the techniques of
# orcein-light green to evidence the structural damages of the elastic strips
# periodic acid, then Schiff's Reagent to locate the deposits of mucopolysaccharids […]
# The intensity of the observed damages and the degree of atheromatosis were determined using one of the following scores: […]
# The histopathological examinations provided individual scores which were analyzed, then reported for each batch. Three parameters were distinctly determined: […]
# 2. The intensity of the atheromatous damages found, determined by the previously-given scores.
# 3. The number of the observed atheromatous damage calculated on the basis of a batch of 15 animals each.
# [4] = tested on: female rats of Wistar strain; assay: Tolerance, mortality and body weight in the rat atheroma study
# Excerpt: as §2, §4
# The behavior and the changes in weight of the animals were surveyed every day as well as by weekly weighing.
# [5] = tested on: atheroma / hyperlipidaemia in Wistar rats on atheromatogenous regimen; assay: Overall hypolipaemiant and anti-atheromatous classification (summarized scores); format: in vivo, rat; conditions: 100 mg/kg
# Excerpt: as §1, §2, §3, §4
# [6] = tested on: hyperlipidaemia induced by TRITON WR 1339; assay: Hyperlipidaemia induced by TRITON WR 1339 in the Wistar rat; format: in vivo; conditions: for Dose dependence of hypolipaemiant activity: 250 and 500 mg/kg
# Method: Feeding by standard Regimen UAR A04
# Drinking water ad libitum
# 6 animals per dose in a cage in MAKROLON of 60×40 cm filled with shavings of wood.
# 10 mn after: administration of the test compound
# 6 hours after: 1st sampling of the blood at the retro-orbital sinus
# Total cholesterol by the colorimetric method of RICHMOND
# Cholesterol in HDL by the colorimetric method of RICHMOND after precipitation by CONCANAVALIN A
# Cholesterol in LDL by the colorimetric method of RICHMOND after precipitation by CONCANAVALIN A
# Total lipids by the Zollner's sulphophosphovanillic method
# Triglycerids by the BUCOLO's enzymatic method.
# [7] = Acute toxicity after single intraperitoneal administration; format: in vivo; conditions: mouse, in vivo, ip, calculated LD 50 (about)
# Excerpt: (§5) Male and female mice of Swiss strain weighing from 22 to 25 g of body weight were free of pathogen specific organisms (EOPS), stemming from breeding CERJ (53860 LE GENEST (France) and acclimated for at least 8 days in the animalry of the firm.
# (§6) Except where stipulated to the contrary, in the tables giving the results, 10 animals of the same sex for each dose were housed in cages of MAKROLON (Safi) of 40 cm by 25 cm filled with shaving of wood. Standard feeding for rats and mice, tablets UAR and tap water ad libitum.
# (§7) The compounds were administered without previous fasting either orally (gastric tubing using a metallic oesophageous sonde) at a rate of 0.5 ml or 1 ml per 20 g of body weight of an aqueous suspension of the test compound in a 3% solution of arabic gum, or intraperitoneally at a rate of 0.5 ml or 1 ml per 20 g of body weight of the test compound suspended in an isotonic saline solution containing 3% of arabic gum.
# (§8) For 6 days after the single administration and then every day for 15 days.
# (§9) When necessary, the mean lethal doses (LD 50) were calculated by the method of Behrens and Karber (BK) and Miller and Tainter (MT). The latter allowing to supply with, for the threshold of probability P=0.05 a limit of confidence for the LD 50. Further calculated were the LDo i.e. DMT=maximal doses always tolerated and the LD100 i.e. DMM=minimal doses always lethal.
# [8] = Acute toxicity after single oral administration; format: in vivo; conditions: mouse, in vivo, po
# Excerpt: as §5, §6, §7, §8, §9
# The compound was administered in a single dose to batches of 10 male or female mice weighing […] at a rate of 1 ml per 20 g of body weight.
# [9] = Maximal tolerated dose on chronic administration in the rat; conditions: in vivo
smiles,measurement,setting,value
CC(C)OC(=O)C(C)(C)Oc1ccc(C(=O)c2ccc(Cl)cc2)cc1 [Fenclofibrate],Atheromatous risk total score,[1],0.23
same,"Cholesterol in LDL / Cholesterol in HDL, % in comparison with Controls-Diet",[1],-12.35%
same,"Cholesterol in LDL / Cholesterol in HDL, score in comparison with Clofibrate",[1],0.16
same,"Total Blood Cholesterol / Cholesterol in HDL, % in comparison with Controls-Diet",[1],-5.06%
same,"Total Blood Cholesterol / Cholesterol in HDL, score in comparison with Clofibrate (=1)",[1],0.07
same,Cholesterol in HDL score (Clofibrate=1),[1]; 4 weeks,0.04
same,"Cholesterol in HDL, variation in comparison to controls-Diet",[1]; 4 weeks,+4.17%
same,Cholesterol in LDL score (Clofibrate=1),[1]; 4 weeks,0.16
same,Esterified cholesterol score (Clofibrate=1),[1]; 4 weeks,0.40
same,"Esterified cholesterol, variation in comparison to controls-Diet",[1]; 4 weeks,-22.08%
same,Total Blood lipids score (Clofibrate=1),[1]; 4 weeks,0.29
same,"Total Blood lipids, variation in comparison to controls-Diet",[1]; 4 weeks,-10.31%
same,Total blood cholesterol score (Clofibrate=1),[1]; 4 weeks,0.02
same,"Total blood cholesterol, variation in comparison to controls-Diet",[1]; 4 weeks,-1.09%
same,"Triglycerids, variation in comparison to controls-Diet",[1]; 4 weeks,-25.86%
same,"Cholesterol in LDL, variation in comparison to controls-Diet",[1]; 4 weeks,-8.69%
same,Biochemistry total score,"[1]; sum of individual scores, Clofibrate=1 each",1.98
same,Macroscopical examination total score,[2],2.17
same,"Damaged animals, % of decrease in comparison with Controls-Diet",[2]; macroscopical,-16.67%
same,"Damaged animals, percentage",[2]; macroscopical,83.33%
same,"Damaged animals, score in relation to Clofibrate",[2]; macroscopical,0.92
same,"Intensity of the damages, % of decrease in comparison with Controls-Diet",[2]; macroscopical,-31.97%
same,"Intensity of the damages, score in relation to Clofibrate",[2]; macroscopical,1.25
same,"Intensity of the damages, quotation","[2]; macroscopical, scores 0 to 5",1.83
same,Histological examination score,[3],2.13
same,Mortality,"[4]; 100 mg/kg, 4 weeks, atheromatogenous regimen (batch No. 2: 2/15)",3/15
same,Classification of the anti-atheromatous action,[5],Compound of the invention>Fenofibrate>Clofibrate
same,"Total Score (biochemistry, atheromatous risk, macroscopical, histological)",[5],6.51
"CC(C)OC(=O)C(C)(C)Oc1ccc(C(=O)c2ccc(Cl)cc2)cc1 [Procetofene, reference compound]",Dose dependence of hypolipaemiant activity,[6]; 6 hours after TRITON WR 1339,directly proportional to the doses
same,Dose dependence of hypolipaemiant activity,[6]; 24 hours after TRITON WR 1339,inversely proportional to the dose
same,Cholesterol HDL/LDL score vs 250 mg/kg Procetofene,"[6]; 6 hours after, 250 mg/kg oral",1.00
same,Total Score vs 250 mg/kg Procetofene,"[6]; 6 hours after, 250 mg/kg oral",4.00
same,Total cholesterol score vs 250 mg/kg Procetofene,"[6]; 6 hours after, 250 mg/kg oral",1.00
same,Total lipids score vs 250 mg/kg Procetofene,"[6]; 6 hours after, 250 mg/kg oral",1.00
same,Triglycerids score vs 250 mg/kg Procetofene,"[6]; 6 hours after, 250 mg/kg oral",1.00
same,Cholesterol HDL/LDL score vs 250 mg/kg Procetofene,"[6]; 6 hours after, 500 mg/kg oral",1.53
same,Total Score vs 250 mg/kg Procetofene,"[6]; 6 hours after, 500 mg/kg oral",5.12
same,Total cholesterol score vs 250 mg/kg Procetofene,"[6]; 6 hours after, 500 mg/kg oral",1.65
same,Total lipids score vs 250 mg/kg Procetofene,"[6]; 6 hours after, 500 mg/kg oral",0.65
same,Triglycerids score vs 250 mg/kg Procetofene,"[6]; 6 hours after, 500 mg/kg oral",1.29
same,Cholesterol HDL/LDL score vs 250 mg/kg Procetofene,"[6]; 24 hours after, 250 mg/kg oral",1.00
same,Total Score vs 250 mg/kg Procetofene,"[6]; 24 hours after, 250 mg/kg oral",4.00
same,Total cholesterol score vs 250 mg/kg Procetofene,"[6]; 24 hours after, 250 mg/kg oral",1.00
same,Total lipids score vs 250 mg/kg Procetofene,"[6]; 24 hours after, 250 mg/kg oral",1.00
same,Triglycerids score vs 250 mg/kg Procetofene,"[6]; 24 hours after, 250 mg/kg oral",1.00
same,Cholesterol HDL/LDL score vs 250 mg/kg Procetofene,"[6]; 24 hours after, 500 mg/kg oral",0.30
same,Total Score vs 250 mg/kg Procetofene,"[6]; 24 hours after, 500 mg/kg oral",3.33
same,Total lipids score vs 250 mg/kg Procetofene,"[6]; 24 hours after, 500 mg/kg oral",0.85
same,Triglycerids score vs 250 mg/kg Procetofene,"[6]; 24 hours after, 500 mg/kg oral",1.01
same,"Antihyperlipaemiant activity, compound vs Procetofene",[6]; same doses (250 and 500 mg/kg),antihyperlipaemiant activity about equal
CCOC(=O)C(C)(C)Oc1ccc(Cl)cc1 [Clofibrate],LD50,[7],~1800 mg/kg
same,LD50,[8],2500 mg/kg
same,Cholesterol in LDL / Cholesterol in HDL ratio (risk of atheroma),[1],5.35
same,"Cholesterol in LDL / Cholesterol in HDL, % in comparison with Controls-Diet",[1],-78.13%
same,Total Blood Cholesterol / Cholesterol in HDL ratio (risk of atheroma),[1],6.69
same,"Total Blood Cholesterol / Cholesterol in HDL, % in comparison with Controls-Diet",[1],-74.91%
same,"Cholesterol in HDL, variation in comparison to controls-Diet",[1]; 4 weeks,+104.17%
same,"Esterified cholesterol, variation in comparison to controls-Diet",[1]; 4 weeks,-55.00%
same,"Total Blood lipids, variation in comparison to controls-Diet",[1]; 4 weeks,-35.43%
same,"Total blood cholesterol, variation in comparison to controls-Diet",[1]; 4 weeks,-48.75%
same,"Triglycerids, variation in comparison to controls-Diet",[1]; 4 weeks,-24.14%
same,"Cholesterol in LDL, variation in comparison to controls-Diet",[1]; 4 weeks,-55.37%
same,Macroscopical examination total score,[2],2.00
same,"Damaged animals, % of decrease in comparison with Controls-Diet",[2]; macroscopical,-18.18%
same,"Damaged animals, percentage",[2]; macroscopical,81.82%
same,"Damaged animals, score in relation to Clofibrate",[2]; macroscopical,1.00
same,"Intensity of the damages, % of decrease in comparison with Controls-Diet",[2]; macroscopical,-25.65%
same,"Intensity of the damages, score in relation to Clofibrate",[2]; macroscopical,1.00
same,Histological examination score,[3],2.00
same,Mortality,"[4]; rat, in vivo",4/15
same,Classification of the anti-atheromatous action,[5],Compound of the invention>Fenofibrate>Clofibrate
same,MTD,[9],~100 mg/kg
